Data published in patent publication US11401516B2, “Channel modulators” (AUCKLAND UNISERVICES LIMITED, priority 2014, dated 2022).
Where a SMILES comes first, the peptide text is derived from it. Where no end group is shown, it is not given here. didodecyl = two dodecyl groups (C12-C12) conjugated at the N terminus

Key:
Connexin43 hemichannel = target: T1, Connexin43 hemichannel (Homo sapiens, UniProt P17302); assay: Whole-cell voltage clamp, Connexin43 transfected HeLa cells; assay type: cell-based; conditions: voltage steps; peptide5 100 μM; carbenoxolone and LaCl3 concentration not stated
T1 construct: expressed in transfected cells; host or cells: HeLa (connexin-deficient parent), Cx43IRESeGFP, puromycin selection
T1 sequence (P17302 2-382 limits assumed): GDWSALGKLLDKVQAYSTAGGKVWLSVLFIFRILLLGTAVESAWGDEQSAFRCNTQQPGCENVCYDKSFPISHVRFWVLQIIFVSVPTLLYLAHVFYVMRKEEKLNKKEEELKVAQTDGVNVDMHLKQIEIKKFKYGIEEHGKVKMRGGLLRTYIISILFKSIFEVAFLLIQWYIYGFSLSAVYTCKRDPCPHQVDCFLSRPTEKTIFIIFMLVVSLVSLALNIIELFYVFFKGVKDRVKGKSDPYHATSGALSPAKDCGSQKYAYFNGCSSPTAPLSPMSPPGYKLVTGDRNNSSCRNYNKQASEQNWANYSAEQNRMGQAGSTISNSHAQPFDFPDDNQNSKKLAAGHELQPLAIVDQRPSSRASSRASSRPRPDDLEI
Protocol: Whole-cell voltage clamp studies were conducted on connexin deficient HeLa cells, Connexin43 transfected HeLa cells and isolated human cerebral microvascular endothelial cells (hCMVEC).
HeLa cells were seeded at 0.045×10^6 cells/mL on 18 mm rat collagen I coated coverslips 16-24 hours before each experiment. Cx43IRESeGFP HeLa cells were cultured overnight in DMEM supplemented with 10% FCS and 1 μg/mL Puromycin at 37° C. at 95% O2 and 5% CO2. Control Cx-deficient cells were maintained in DMEM supplmented with 10% FCS. Coverslips were transferred to a chamber continuously perfused with modified Krebs-Ringer solution containing (in mM): 140 NaCl, 5.4 KCl, 1 MgCl2, 10 mM Hepes and pH adjusted to 7.4 at room temperature. The internal pipette solution contained (in mM): 130 KCl, 10 sodium aspartate, 0.26 CaCl2, 2 EGTA, 5 tetraethylammonium-Cl, 1 MgCl, 3 MgATP, and 5 Hepes at pH 7.2; and was kept on ice. The solutions are described in Contreras J E, et al., Cell Communication and Adhesion (2003), 10:245-249. To resolve single currents in whole-cell configuration, cells with low capacitance (<10 pF) and high resistance pipettes ([…]) with a seal resistance of (>5 GOhm) were selected for recording and analysis.

hCMVEC cells = assay: Scrape load assay (Lucifer yellow dye transfer); assay type: cell-based, human; conditions: broad spectrum gap-junction blocker, concentration not given
Protocol: In the below Examples 2, 4, 5, 8 and 10 using human cerebral microvascular endothelial cells (hCMVEC), cells were prepared by growing them in collagen coated (30 μg/mL) T25 or T75 flasks maintained in Medium M199 supplemented with 10% FCS, 1 μg/mL hydrocortisone, 3 ng/mL hFGF, 1 ng/mL hEGF, 10 μg/mL heparin, 1× penicillin streptomycin neomycin (Life Technologies), and cAMP (100 μL 100% cAMP to 100 mL media). Cells were maintained at 37° C. with 95% O2 and 5% CO2.
In this Example, human cerebral microvascular endothelial cells (hCMVEC) were grown in collagen coated (1 μg/mL) T25 flasks maintained in Medium M199 supplemented with 10% FBS, 1 μg/mL hydrocortisone, 3 ng/mL hFGF, 1 ng/mL hEGF, 10 μg/mL heparin and cAMP (100 μL 100% cAMP to 100 mL media) in a humidified atmosphere at 37° C. with 5% CO2. One day prior to experimentation, these cells were trypsinized and plated at a density of 4×10^5 cells/well in a collagen-coated 12 well-plate in the same medium. For treatments, cells were cultured in the presence of peptide5, a control gap junction channel blocker (carbenoxolone), or tonabersat for the respective time intervals prior to scrape dye loading. The blockers were also present in the respective scrape loading solutions.
For scrape loading the hCMVEC cells were washed three times with phosphate buffered saline (PBS) (without divalent cations). A solution of PBS+0.05% lucifer yellow was added to cells. The cells then received a scrape to the monolayer using a size 10 carbon steel surgical blade and incubated in the dark at 37° C. with 5% CO2 for 5 minutes. The cells were washed with PBS four times and then 1 mL of PBS added for fluorescent microscopy.
The live cells were then imaged on a Nikon TE2000E fluorescent microscope whilst maintained in a chamber heated to 37° C. with 5% CO2. Three images pairs were obtained at 10× magnification for each of a phase contrast image to view total cells and a fluorescent image to visualize Lucifer yellow using 488 nm excitation and a GFP filter block. Gap junctional communication was determined by counting the number of Lucifer yellow positive cells and presented as a percentage to the positive cells of the control group. Data was graphed as mean+standard error of the mean using Prism v5.02 software. Significance was determined through students two-tailed, unpaired, T Tests. *=p<0.05, **=[…], ***=p<0.001.
An in vitro scrape-loading assay with extracellular Lucifer Yellow (LY), a fluorescent dye that is transferred only through coupled GJs was performed to test whether Tonabersat inhibits GJ communication (M. H. el-Fouly, et al., Experimental cell research 168, 422 (February, 1987)). A single scrape wound was made to a confluent monolayer of hCMVEC cells to enable LY dye to gain access to the cytoplasm of cells at the edge of the wounded region and allow the dye to transfer to adjacent cells through GJs.

[1] = test system: Cx43 hemichannel and pannexin channel mediated ATP release from hCMVEC cells; assay: In vitro ischaemia injury ATP assay; assay type: cell-based, human
Protocol: (§1) Using an in vitro ischemia injury model, the Cx43 hemichannel and pannexin channel mediated ATP release was differentiated using the connexin hemichannel blocking mimetic peptide5 at 100 μM concentration (S. J. O'Carroll, et al., Cell communication & adhesion 15, 27 (May, 2008)) and 1 mM Probenecid (W. R. Silverman et al., The Journal of biological chemistry 284, 18143 (Jul. 3, 2009)).
Human cerebral microvascular endothelial cells (hCMVEC) were trypsinised (TrypLE Express, Life technologies) and plated at a density of 0.025×10^6 cells per well in a collagen-coated 12-well plate (1 μg/cm2) a day prior to the experiment. Cells were incubated in culture medium overnight. Hypoxic, acidic, ion-shifted Ringer injury solution that mimics ionic concentrations and acid-base shifts of the interstitial space in hypoxic-ischemic brains (A. Bondarenko, et al., Glia 34, 143 (Apr. 15, 2001)) was used to trigger hemichannel opening. The injury solution (in mM): 38 NaCl, 13 NaHCO3, 3 Na-gluconate, 65 K-gluconate, 38 NMDG-Cl, 1 NaH2PO4, 1.5 MgCl2, was bubbled in N2 gas (>99% purity, 20 L/min) for 5 minutes and pH adjusted to 6.6 using 5 M HCl. Control solution that mimics physiological conditions contained (in mM): 124 NaCl, 3 KCl, 26 NaHCO3, […], 1 NaH2PO4, 1.3 CaCl2, 1.5 MgCl2, and 10 Glucose, and pH 7.4 was adjusted using 5 M HCl (Bondarenko, 2001). […] Following a 2-hour injury the solutions were immediately placed on ice. In the injury and reperfusion model, hCMVEC cells were incubated in 500 μL of normal solution or injury solution for 2 hours at 37° C. in 95% O2 and 5% CO2. Following 2 hour injury, the solutions were discarded and replaced with 500 μL of the normal solution, or Tonabersat (10 μM) dissolved in normal solution, and were incubated for 2 hours at 37° C. in 95% O2 and 5% CO2. These solutions were also then immediately placed on ice. Peptide5 (100 μM)+/−Probenecid (1 mM) were used as controls for both injury and injury-reperfusion models. ATP concentration in the samples was determined using a Luciferin/luciferase bioluminescence reaction (ATP Determination Kit, Molecular Probes) and detected using a luminescence plate reader (VICTOR X, Perkin Elmer #2030-0010). Standard curves were generated in each experiment from an ATP standard (500 nM) to quantify the concentration of ATP in the test samples. The data is presented as mean±standard error relative to the injury or injury-reperfusion control. Statistically significant differences between samples were identified using one-way analysis of variance and Tukey's multiple comparisons test.

[2] = bovine
[3] = test system: Cx43 hemichannel and pannexin channel mediated ATP release from hCMVEC cells; assay: In vitro ischaemia injury-reperfusion ATP assay; assay type: cell-based, human; conditions: 2 h, 1000 µM
Protocol: as §1
Human cerebral microvascular endothelial cells (hCMVEC) were trypsinised (TrypLE Express, Life technologies) and plated at a density of 0.025×10^6 cells per well in a collagen-coated 12-well plate (1 μg/cm2) a day prior to the experiment. Cells were incubated in culture medium overnight. Hypoxic, acidic, ion-shifted Ringer injury solution that mimics ionic concentrations and acid-base shifts of the interstitial space in hypoxic-ischemic brains (A. Bondarenko, et al., Glia 34, 143 (Apr. 15, 2001)) was used to trigger hemichannel opening. […] ATP concentration in the samples was determined using a Luciferin/luciferase bioluminescence reaction (ATP Determination Kit, Molecular Probes) and detected using a luminescence plate reader (VICTOR X, Perkin Elmer #2030-0010). Standard curves were generated in each experiment from an ATP standard (500 nM) to quantify the concentration of ATP in the test samples. […]

Cxn43 = Cxn43 (Rattus norvegicus, UniProt P08050); assay: Retinal ischemia reperfusion (glaucoma model), Cxn43 quantification; assay type: in vivo, Wistar rats; conditions: 8 hr after ischemia
Sequence of Cxn43 (P08050 2-382 limits assumed): as the sequence (P17302 2-382 limits assumed) above, with D123E, I163V, K242R, S250T, A252P, A256S, Q262P, S343A, L346V counted along it
Protocol: (§2) The effects of chemical modification and particulate formulation delivery were measured on rats modelled for glaucoma with a retinal ischemia reperfusion. First, a retinal ischemia reperfusion model was created. A total of 121 adult male Wistar rats weighing 200 to 300 g were used for the study. Retinal ischemia was modeled in the left eye (120 mmHg for 60 min), with the right eye as the control, and then the connexin 43 modulator peptide formulations were injected intravitreally immediately as solutions in 1×PBS delivery agent. The connexin 43 modulator peptide used was SEQ-Pept5, in both its unmodified and chemically modified (didodecyl) forms. The formulations used were neat (just diluted in 1×PBS delivery media) solutions of nanoparticles or microparticles. After reperfusion, Evan's blue dye was injected intraperitoneally 4 hr after reperfusion to visualize vessel leak using confocal microscopy. Retinal whole mounts were collected at 8 hr and 28 days for Cxn43 quantitification, and 28 and 90 days for gangliol cell (RGC) density quantification.

retinal vessel leak = assay: Retinal ischemia reperfusion (glaucoma model), vessel leak with Evan's blue dye; assay type: in vivo, Wistar rats; conditions: 4 hr post-ischemia, intravitreal
Protocol: as §2

Retinal ganglion cell = assay: Retinal ischemia reperfusion (glaucoma model), RGC count; assay type: in vivo, Wistar rats; conditions: after 28 days
Protocol: as §2

For `CC1(C)[C@@H](OC(=O)CCC(=O)O)CC[C@]2(C)[C@H]3C(=O)C=C4[C@@H]5C[C@@](C)(C(=O)O)CC[C@]5(C)CC[C@@]4(C)[C@]3(C)CC[C@@H]12` [Carbenoxolone], the Connexin43 hemichannel activity (Connexin43 hemichannel) was “virtually complete hemichannel block”, the “LY positive cells compared to control” value (hCMVEC cells) was 77.8±7.4% and the “level of the inhibition of ATP release” value ([1]; ischemic injury) was 65%.

For `CC(C)C[C@H](NC(=O)[C@H](Cc1ccccc1)NC(=O)[C@H](CS)NC(=O)[C@H](CC(=O)O)NC(=O)[C@@H](N)C(C)C)C(=O)N[C@@H](CO)C(=O)N[C@@H](CCCNC(=N)N)C(=O)N1CCC[C@H]1C(=O)N[C@H](C(=O)N[C@@H](CCC(=O)O)C(=O)N[C@@H](CCCCN)C(=O)N[C@H](C(=O)O)[C@@H](C)O)[C@@H](C)O` [Peptide5] (H-VDCFLSRPTEKT-OH), the half-life [2] was ~2 h.

With `CCCN(CCC)S(=O)(=O)c1ccc(C(=O)O)cc1` [Probenecid, p-[Dipropylsulfamoyl]benzoic acid] the “ATP release, percentage of the injury-reperfusion (IR) control” value [3] was 99.3±4.4% and the “total extracellular ATP release, percentage of the injury control” value ([1]; 2-hour injury, 100 μM Peptide5, 1 mM Probenecid, alone or combined) was 83.1±4.5%.

With “C12-C12 Cxn43 MP: connexin 43 modulator peptide conjugated at the N terminus to two dodecyl groups, SEQ ID NO: 237 (didodecyl-VDCFLSRPTEKT)” the Cxn43 spot counts (Cxn43) was “reduced moreso”, the vessel leak (retinal vessel leak) was “reduction in vessel leak” and the RGC survival (Retinal ganglion cell) was “over 93%”.
